From BindingDB's records for doi:10.1111/j.1747-0285.2007.00520.x (Pfizer, 2007)
Values joined by “and” are separate entries in the source; they are usually repeats but may differ in a detail not shown here. Identical values can stand only once.

Molecular target: Coagulation factor X (Homo sapiens, UniProt P00742)
Test: Inhibition Assay

Chain of Coagulation factor X (P00742 41-179 limits assumed): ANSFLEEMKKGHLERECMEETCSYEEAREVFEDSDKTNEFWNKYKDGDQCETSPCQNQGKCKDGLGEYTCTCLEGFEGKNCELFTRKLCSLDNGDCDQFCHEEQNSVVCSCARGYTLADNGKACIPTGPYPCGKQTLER
Chain of Coagulation factor X (P00742 235-488 limits assumed): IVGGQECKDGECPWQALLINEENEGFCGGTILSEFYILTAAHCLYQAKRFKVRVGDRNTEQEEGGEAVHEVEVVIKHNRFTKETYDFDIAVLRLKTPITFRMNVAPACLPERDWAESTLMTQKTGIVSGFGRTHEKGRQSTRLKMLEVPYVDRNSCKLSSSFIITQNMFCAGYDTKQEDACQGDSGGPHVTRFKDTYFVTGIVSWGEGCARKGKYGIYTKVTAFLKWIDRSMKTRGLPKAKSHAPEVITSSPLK

Row | Structure (SMILES) | IC50
1 | CS(=O)(=O)c1ccccc1-c1ccc(NC(=O)[C@H]2CC(O)CN2C(=O)Nc2ccc(F)cc2)c(F)c1 (stereo partly drawn) [4-Substituted Pyrrolidine Ring, 36] | 7.6 nM
2 | NS(=O)(=O)c1ccccc1-c1ccc(NC(=O)[C@H]2CC(O)CN2C(=O)Nc2ccc(Cl)cc2)c(F)c1 (stereo partly drawn) [4-Substituted Pyrrolidine Ring, 14] | 0.75 nM
3 | NS(=O)(=O)c1ccccc1-c1ccc(NC(=O)C2CCCN2C(=O)Nc2ccc(C(F)(F)F)cc2)c(F)c1 (stereo not drawn) [P1 Phenyl Ring, 31] | > 4000 nM
4 | COC1C[C@H](C(=O)Nc2ccc(-c3ccccc3S(C)(=O)=O)cc2F)N(C(=O)Nc2ccc(Cl)cn2)C1 (stereo partly drawn) [4-Substituted Pyrrolidine Ring, 35] | 1 nM
5 | NS(=O)(=O)c1ccccc1-c1ccc(NC(=O)C2CCCN2C(=O)Nc2ccccc2F)c(F)c1 (stereo not drawn) [P1 Phenyl Ring, 33] | > 4000 nM
6 | COc1ccc(NC(=O)N2CCCC2C(=O)Nc2ccc(-c3ccccc3S(N)(=O)=O)cc2F)cc1 (stereo not drawn) [P1 Phenyl Ring, 26] | 873 nM
7 | CS(=O)(=O)c1ccccc1-c1ccc(NC(=O)[C@H]2CC(F)CN2C(=O)Nc2ccc(Cl)cc2)c(F)c1 (stereo partly drawn) [4-Substituted Pyrrolidine Ring, 17] | 7 nM and 1.2 nM
8 | CS(=O)(=O)c1ccccc1-c1ccc(NC(=O)[C@H]2CC(O)CN2C(=O)Nc2ccc(Cl)cn2)c(F)c1 (stereo partly drawn) [4-Substituted Pyrrolidine Ring, 34] | 4.3 nM
9 | CCc1ccc(NC(=O)N2CCCC2C(=O)Nc2ccc(-c3ccccc3S(N)(=O)=O)cc2F)cc1 (stereo not drawn) [P1 Phenyl Ring, 30] | > 4000 nM
10 | CS(=O)(=O)c1ccccc1-c1ccc(NC(=O)[C@H]2CC(F)(F)CN2C(=O)Nc2ccc(Cl)cc2)c(F)c1 [4-Substituted Pyrrolidine Ring, 21] | 5 nM
11 | CS(=O)(=O)c1ccccc1-c1ccc(NC(=O)[C@H]2CC(=O)CN2C(=O)Nc2ccc(Cl)cc2)c(F)c1 [4-Substituted Pyrrolidine Ring, 20] | 2.9 nM

The remaining lines, values ahead:

Row | IC50 | Structure (SMILES)
12 | > 4000 nM | COc1cccc(NC(=O)N2CCCC2C(=O)Nc2ccc(-c3ccccc3S(N)(=O)=O)cc2F)c1 (stereo not drawn) [P1 Phenyl Ring, 32]
13 | 389 nM | Cc1ccc(NC(=O)N2CCCC2C(=O)Nc2ccc(-c3ccccc3S(N)(=O)=O)cc2F)cc1 (stereo not drawn) [P1 Phenyl Ring, 24]
14 | > 4000 nM | NS(=O)(=O)c1ccccc1-c1ccc(NC(=O)C2CCCN2C(=O)Nc2cccc(Cl)c2)c(F)c1 (stereo not drawn) [P1 Phenyl Ring, 28]
15 | 951 nM | NS(=O)(=O)c1ccccc1-c1ccc(NC(=O)C2CCCN2C(=O)Nc2ccccc2)c(F)c1 (stereo not drawn) [P1 Phenyl Ring, 27]
16 | 516 nM | Cc1ccc(NC(=O)N2CCCC2C(=O)Nc2ccc(-c3ccccc3S(N)(=O)=O)cc2F)cc1F (stereo not drawn) [P1 Phenyl Ring, 25]
17 | > 4000 nM | NS(=O)(=O)c1ccccc1-c1ccc(NC(=O)C2CCCN2C(=O)Nc2ccc(Cl)c(Cl)c2)c(F)c1 (stereo not drawn) [P1 Phenyl Ring, 29]
18 | 33 nM | NS(=O)(=O)c1ccccc1-c1ccc(NC(=O)C2CCCN2C(=O)Nc2ccc(Br)cc2)c(F)c1 (stereo not drawn) [P1 Phenyl Ring, 22]
